In US20220016101A1 (ACADIA Pharmaceuticals Inc., priority 2018, published 2022):

System: patients with MDD and an inadequate response to an SSRI or SNRI
Test: Massachusetts General Hospital Sexual Functioning Index (MGH-SFI), Study ACP-103-042
Type: in vivo, human
From the text: “Massachusetts General Hospital Sexual Functioning Index (MGH-SFI)” is described, for instance, in Labbate and Lare, 2001, Psychother Psychosom. 70(4):221-225. This is a patient facing questionnaire that quantifies sexual dysfunction into 5 functional domains (“interest in sex,” “sexual arousal,” “ability to achieve orgasm,” “ability to maintain erection” (males only), and “sexual satisfaction”). Patients rate each item using a 6-point scale ranging from 1 (good function) to 6 (poor function). High scores indicate poor sexual functioning. […] The determination of the subject's status and eligibility for randomization in Stage 2 was made in a double-blind manner. […] Sexual functioning was assessed using the Massachusetts General Hospital Sexual Functioning Index or MGH-SFI (Labbate and Lare, 2001, Psychother Psychosom. 70(4):221-225). This is a patient facing questionnaire that quantifies sexual dysfunction into 5 functional domains (“interest in sex,” “sexual arousal,” “ability to achieve orgasm,” “ability to maintain erection” [malesonly], and “sexual satisfaction”). Patients rate each item using a 6-point scale ranging from 1 (good function) to 6 (poor function). The time frame for this scale is the past month. This scale was administered at baseline and Week 5 in both stages of the study. High scores indicate poor sexual functioning. In ACP-103-042 the mean scores for MGH-SFI at Baseline was calculated over all 5 domains for males and the 4 domains for females. For MGH-SFI (follow-up version) at Study Weeks 5 and 10, the mean was calculated in the same way as MGH-SFI at Baseline. […] Tables 10-27 summarize the detailed data of MGH-SFI individual items of the overall study group (Tables 10-15), the subgroup of age of <=50 (Tables 16-21) and the subgroup of age of >50 (Table 21-26). In Tables 9-26, ANCOVA=analysis of covariance; OC=observed cases; LSM=least squares mean; CI=confidence interval; SD=standard deviation; SE=standard error. Stage 1: Baseline=Study Week 0, Week 5=Study Week 5; Stage 2: Baseline=Study Week 5, Week 5=Study Weeks 10. LSM from the stage-specific ANCOVA analysis with the change from baseline as the outcome, treatment group as a factor, and the corresponding Baseline value as a covariate. 2-sided p-value for treatment difference from the stage-specific ANCOVA analysis. An treatment effect size (Cohen's d) is calculated using the formula: Effect Size=Least Square mean difference between PIM and PBO/SD. The corresponding 95% confidence interval for an effect size is calculated based on the theoretical probability distribution of the effect size. […] Tables 10-15 and 28-38 summarize the detailed data of MGH-SFI individual items of the overall study group (Tables 10-15), the female subgroup (Tables 33-37) and the male subgroup (Table 38-43). An treatment effect size (Cohen's d) is calculated using the formula: Effect Size=Least Square mean difference between PIM and PBO/SD. The corresponding 95% confidence interval for an effect size is calculated based on the theoretical probability distribution of the effect size. In Tables 10-15 and 28-38, ANCOVA=analysis of covariance; OC=observed cases; LSM=least squares mean; CI=confidence interval; SD=standard deviation; SE=standard error. Stage 1: Baseline=Study Week 0, Week 5=Study Week 5; Stage 2: Baseline=Study Week 5, Week 5=Study Weeks 10. LSM from the stage-specific ANCOVA analysis with the change from baseline as the outcome, treatment group as a factor, and the corresponding Baseline value as a covariate. 2-sided p-value for treatment difference from the stage-specific ANCOVA analysis. An treatment effect size (Cohen's d) is calculated using the formula: Effect Size=Least Square mean difference between PIM and PBO/SD. The corresponding 95% confidence interval for an effect size is calculated based on the theoretical probability distribution of the effect size.

[1] = male subgroup, Stage 2, PIM 34 mg
[2] = male subgroup, Stage 2, PIM 34 mg vs placebo, change from baseline to Week 5
[3] = male subgroup, Stage 2, PIM 34 mg, Week 5
[4] = subgroup <=50 years old, Stage 1, PIM 34 mg

CC(C)COc1ccc(CNC(=O)N(Cc2ccc(F)cc2)C2CCN(C)CC2)cc1 [pimavanserin, N-(4-Fluorophenylmethyl)-N-(1-methylpiperidin-4-yl)-N′-(4-(2-methylpropyloxy)phenylmethyl)carbamide]
MGH-SFI Item 02: Ability to Get Sexually Aroused or Excited, Change from Baseline to Week 5, Median [1]: −1.0
MGH-SFI Item 03: Ability to Achieve Orgasm, Change from Baseline to Week 5, Mean (SE) [1]: −0.8 (0.36)
MGH-SFI Item 03: Ability to Achieve Orgasm, Change from Baseline to Week 5, Median [1]: 0.0
MGH-SFI Item 04: (Men) Ability to Get and Maintain an Erection, Change from Baseline to Week 5, Mean (SE) [1]: −1.0 (0.41)
MGH-SFI Item 04: (Men) Ability to Get and Maintain an Erection, Change from Baseline to Week 5, Median [1]: −1.0
MGH-SFI Item 05: Overall Sexual Satisfaction, Change from Baseline to Week 5, Mean (SE) [1]: −1.4 (0.50)
MGH-SFI Item 05: Overall Sexual Satisfaction, Change from Baseline to Week 5, Median [1]: −1.0
MGH-SFI Item 06: Overall Improvement Since Last Medication Change, Effect Size (Cohen's d) (male subgroup, Stage 2, PIM 34 mg vs placebo, Week 5): 0.405
MGH-SFI Item 02: Ability to Get Sexually Aroused or Excited, Effect Size (Cohen's d) [2]: −0.154
MGH-SFI Item 03: Ability to Achieve Orgasm, Effect Size (Cohen's d) [2]: 0.497
MGH-SFI Item 04: (Men) Ability to Get and Maintain an Erection, Effect Size (Cohen's d) [2]: 0.701
MGH-SFI Item 05: Overall Sexual Satisfaction, Effect Size (Cohen's d) [2]: 0.511
MGH-SFI Item 02: Ability to Get Sexually Aroused or Excited, Week 5, Mean (SE) [3]: 3.6 (0.47)
MGH-SFI Item 02: Ability to Get Sexually Aroused or Excited, Week 5, Median [3]: 4.0
MGH-SFI Item 03: Ability to Achieve Orgasm, Week 5, Mean (SE) [3]: 3.6 (0.56)
MGH-SFI Item 03: Ability to Achieve Orgasm, Week 5, Median [3]: 4.0
MGH-SFI Item 04: (Men) Ability to Get and Maintain an Erection, Week 5, Mean (SE) [3]: 3.1 (0.54)
MGH-SFI Item 04: (Men) Ability to Get and Maintain an Erection, Week 5, Median [3]: 4.0
MGH-SFI Item 05: Overall Sexual Satisfaction, Week 5, Mean (SE) [3]: 3.0 (0.53)
MGH-SFI Item 05: Overall Sexual Satisfaction, Week 5, Median [3]: 3.0
MGH-SFI Item 06: Overall Improvement Since Last Medication Change, Week 5, Mean (SE) [3]: 3.7 (0.53)
MGH-SFI Item 06: Overall Improvement Since Last Medication Change, Week 5, Median [3]: 4.0
MGH-SFI 01: Interest in Sex, Effect Size (Cohen's d) (male subgroup, Stage 2, positive = pimavanserin better than placebo): 0.174
MGH-SFI Items 1, 2, 3, and 5 mean change from baseline to Week 5 vs placebo (overall study group): significantly greater
MGH-SFI 04: (Men) Ability to Get and Maintain an Erection, Change from Baseline to Week 5 Mean (SE) [4]: −1.7 (1.45)
MGH-SFI 04: (Men) Ability to Get and Maintain an Erection, Change from Baseline to Week 5 Median [4]: −2.0
MGH-SFI 04: (Men) Ability to Get and Maintain an Erection, Week 5 Mean (SE) [4]: 2.3 (0.67)
MGH-SFI 04: (Men) Ability to Get and Maintain an Erection, Week 5 Median [4]: 3.0
MGH-SFI 05: Overall Sexual Satisfaction, Change from Baseline to Week 5 Mean (SE) [4]: −0.5 (0.35)
MGH-SFI 05: Overall Sexual Satisfaction, Change from Baseline to Week 5 Median [4]: 0.0
MGH-SFI 05: Overall Sexual Satisfaction, Week 5 Mean (SE) [4]: 3.6 (0.43)
MGH-SFI 05: Overall Sexual Satisfaction, Week 5 Median [4]: 4.0
MGH-SFI 06: Overall Improvement Since Last Medication Change, Week 5 Mean (SE) [4]: 3.0 (0.24)
MGH-SFI 06: Overall Improvement Since Last Medication Change, Week 5 Median [4]: 3.0
MGH-SFI 04: (Men) Ability to Get and Maintain an Erection, Effect Size (Cohen's d) (subgroup <=50 years old, Stage 1, PIM 34 mg vs placebo): 0.877
